As a reminder, the IC50 is the concentration that inhibits the measured activity by half.

Structures are written as SMILES. Where a name gives a salt, the structure may show the parent alone. A value given as a limit tells only on which side of the number the result lay.

Among the data in patent US11124518B2, “L,2-dihydro-3H-pyrazolo[3,4-D]pyrimidin-3-one analogs” (Recurium IP Holdings, LLC, priority 2017, dated 2021) are IC50 values, retold here.

The subject of one experiment is H23 cells. The experiment can be described thus: H23 Cellular Proliferation Assay (CellTiter-Glo). In kind it is cell-based. The conditions noted are these: Homo sapiens, NCI-H23, 96 h, 4 days. The procedure:
Cells were treated with compounds diluted in DMSO and a 9 point 5-fold serial dilutions. Plates were placed in 37° C., 5% CO2 to incubate for 4 days. Before they were developed by adding 100 μL of CellTiter-Glo reagent (Promega) to the assay plate, plates were shaken briefly for 2 mins and allowed to incubate at RT for 10 mins. The plates are read with a M5e plate reader according to CellTiter-Glo protocol. The GraphPad Prism software was used to get IC50 values. The bottom of the plates was pasted with white back seal and luminescence was recorded with Enspire or Envision.

The next experiment relates to SW480 cells. The experiment can be described thus: SW480 Cellular Proliferation Assay (CellTiter-Glo). The format is cell-based. Particulars: Homo sapiens, 96 h, 4 days. The protocol:
Cells were treated with compounds diluted in DMSO and a 10 point 3-fold serial dilutions. Plates were placed in 37° C., 5% CO2 for to incubate for 4 days. Before they were developed by adding 100 μL of CellTiter-Glo reagent (Promega) to the assay plate, plates were shaken briefly for 2 mins and allowed to incubate at RT for 60 mins. The bottom of the plates was pasted with white back seal and luminescence was recorded with Enspire or Envision.

A further experiment concerns the target Wee1 kinase (Homo sapiens (Human), UniProt P30291). In words: Wee1 Binding Assay (FRET). Particulars: Wee1 kinase 2 nM, tracer 178 50 nM, 60 min at RT, read-out: Wee1 Enzymatic IC50. The protocol: Wee 1 kinase was determined by using Flurorescence Resonance Energy Transfer (FRET) assay. […] The plate was shaken for 30 seconds, incubated for 60 min at RT, and recorded on fluorescence plate reader.

Chain of Wee1 kinase (P30291 whole entry): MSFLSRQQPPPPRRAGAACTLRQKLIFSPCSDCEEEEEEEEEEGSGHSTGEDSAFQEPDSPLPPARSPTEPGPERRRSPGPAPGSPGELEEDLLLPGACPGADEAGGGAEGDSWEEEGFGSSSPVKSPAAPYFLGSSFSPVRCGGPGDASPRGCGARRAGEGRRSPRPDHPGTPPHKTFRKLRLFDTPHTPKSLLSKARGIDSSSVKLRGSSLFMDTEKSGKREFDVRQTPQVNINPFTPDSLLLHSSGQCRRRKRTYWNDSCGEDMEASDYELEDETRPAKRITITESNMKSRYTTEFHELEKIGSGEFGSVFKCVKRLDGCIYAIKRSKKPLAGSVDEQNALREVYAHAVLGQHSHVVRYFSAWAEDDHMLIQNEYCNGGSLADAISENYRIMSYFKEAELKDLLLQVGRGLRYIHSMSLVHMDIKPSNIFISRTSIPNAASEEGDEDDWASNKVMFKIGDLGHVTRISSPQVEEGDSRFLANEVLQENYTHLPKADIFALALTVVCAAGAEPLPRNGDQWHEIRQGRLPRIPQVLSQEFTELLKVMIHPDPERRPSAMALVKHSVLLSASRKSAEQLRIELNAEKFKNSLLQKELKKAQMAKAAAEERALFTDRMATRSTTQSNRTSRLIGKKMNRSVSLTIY

For the compound `C=CCn1c(=O)c2cnc(Nc3ccc4c(c3)CCN(C)C4)nc2n1-c1cccc(C(C)(C)O)n1` [Example 16, 2-Allyl-1-(6-(2-hydroxypropan-2-yl)pyridin-2-yl)-6-((2-methyl-1,2,3,4-tetrahydroisoquinolin-6-yl)amino)-1,2-dihydro-3H-pyrazolo[3,4-d]pyrimidin-3-one], the values for the half-maximal inhibitory concentration (IC50) in the experiment with H23 cells, with SW480 cells and at Wee1 kinase were < 0.1 µM, > 1 µM and < 0.01 µM, respectively.
As to `C=CCn1c(=O)c2cnc(Nc3ccc4c(c3)CN(CCO)CC4)nc2n1-c1cccc(C(C)(C)O)n1` [Example 13, 2-Allyl-6-((2-(2-hydroxyethyl)-1,2,3,4-tetrahydroisoquinolin-7-yl)amino)-1-(6-(2-hydroxypropan-2-yl)pyridin-2-yl)-1,2-dihydro-3H-pyrazolo[3,4-d]pyrimidin-3-one hydrochloride], the IC50 in the experiment with H23 cells was 0.1 to 1 µM; with SW480 cells, > 1 µM; on Wee1 kinase, < 0.01 µM.
For `C=CCn1c(=O)c2cnc(Nc3ccc4c(c3)CN(C)CC4)nc2n1-c1cccc(C(C)(C)O)n1` [Example 5, 2-Allyl-1-(6-(2-hydroxypropan-2-yl)pyridin-2-yl)-6-((2-methyl-1,2,3,4-tetrahydroisoquinolin-7-yl)amino)-1,2-dihydro-3H-pyrazolo[3,4-d]pyrimidin-3-one] the same measures were < 0.1 µM, 0.1 to 1 µM and < 0.01 µM.
For `C=CCn1c(=O)c2cnc(Nc3ccc4c(c3)CN(C(C)=O)CC4)nc2n1-c1cccc(C(C)(C)O)n1` [Example 8, 6-((2-Acetyl-1,2,3,4-tetrahydroisoquinolin-7-yl)amino)-2-allyl-1-(6-(2-hydroxypropan-2-yl)pyridin-2-yl)-1,2-dihydro-3H-pyrazolo[3,4-d]pyrimidin-3-one] the same measures were > 1 µM, 0.1 to 1 µM and < 0.01 µM.
In the case of `C=CCn1c(=O)c2cnc(Nc3ccc4c(c3)C(=O)NCC4)nc2n1-c1cccc(C(C)(C)O)n1` [Example 19, 7-((2-Allyl-1-(6-(2-hydroxypropan-2-yl)pyridin-2-yl)-3-oxo-2,3-dihydro-1H-pyrazolo[3,4-d]pyrimidin-6-yl)amino)-3,4-dihydroisoquinolin-1(2H)-one], the 50% inhibitory concentration (IC50) with H23 cells was > 1 µM; in the experiment with SW480 cells it was > 1 µM; at Wee1 kinase, < 0.01 µM.
Turning to `C=CCn1c(=O)c2cnc(Nc3ccc4c(c3)C(=O)N(C)CC4)nc2n1-c1cccc(C(C)(C)O)n1` [Example 20, 7-((2-Allyl-1-(6-(2-hydroxypropan-2-yl)pyridin-2-yl)-3-oxo-2,3-dihydro-H-pyrazolo[3,4-d]pyrimidin-6-yl)amino)-2-methyl-3,4-dihydroisoquinolin-1(2H)-one], the IC50 is 0.1 to 1 µM with H23 cells, 0.1 to 1 µM with SW480 cells and < 0.01 µM at Wee1 kinase.
As to `C=CCn1c(=O)c2cnc(Nc3ccc4c(c3)CNCC4)nc2n1-c1cccc(C(C)(C)O)n1` [Example 6, 2-Allyl-1-(6-(2-hydroxypropan-2-yl)pyridin-2-yl)-6-((1,2,3,4-tetrahydroisoquinolin-7-yl)amino)-1,2-dihydro-3H-pyrazolo[3,4-d]pyrimidin-3-one hydrochloride], the IC50 is 0.1 to 1 µM in the experiment on H23 cells, 0.1 to 1 µM in the experiment on SW480 cells and < 0.01 µM at Wee1 kinase.
